From patent publication US20090169635A1, “PHARMACEUTICAL COMPOSITIONS AND USE THEREOF” (priority 2007, published 2009)
Structures can show the parent of a compound that is named as a salt.

What was measured:
[1] = test system: Mycobacterium tuberculosis strain H37RV (ATCC 27294); experiment: Tuberculosis model: mice inoculated intravenously with M. tuberculosis, treated intraperitoneally for 4 weeks, observed to D56; format: in vivo, BALB/C female mice; details: for Numbers of deaths: 4 weeks
[2] = test system: Mycobacter avium complex (MAC); details: 100 mg/kg IM five days a week for four weeks; cited from earlier work
[3] = test system: Staphylococcus pneumoniae (ATCC 6301); experiment: Bacterial pneumonia model: mice inoculated intratracheally, single intravenous treatment 20 hours later, mortality recorded for 10 days; format: in vivo, Male CD-1 mice; details: Vancomycin dose 1 mg/kg i.v.
Description: An investigation of the antibacterial efficacy of nanoparticulate forms of parenterally administered Vancomycin was carried out in comparison with conventional parenteral Vancomycin […] for injection,
Bacteria: […] (ATCC #6301), Gram-positive serotype
Animals: Male CD-1 (Charles River Laboratory) mice weighing 24±2 g provided are used. Space allocation for animals is 45×23×21 cm for 10 mice. The animals are housed in animal cages and are maintained in a hygienic environment under controlled temperature (22°-23° C.) and humidity (50% -60%) with 12 hours light/dark cycles for at least one week in the laboratory prior to initiation of the study. Free access to standard lab food and water supply is allowed.
Pneumonia model: Mice were inoculated intratracheally (IT) with a LD90-100 of […] pneumoniae (ATCC 6301) (9.7×10^6 […]) in 40 μl PBS. In 16 hours, all mice developed pronounced pneumonia, confirmed by histological observation. Test formulations and vehicle were diluted with 5% sterile dextrose and administered intravenously to animals 20 hours after bacterial inoculation. Mortality was recorded once daily for 10 days.

[4] = cited from earlier work
[5] = 100 mg/kg i.p., 2 x week, cumulative 800 mg/kg
[6] = 200 mg/kg i.p., 5 x week, cumulative 4000 mg/kg
[7] = D56, 200 mg/kg i.p., 5 x week for 4 weeks

For `[H]/N=C(/N)N[C@H]1[C@H](O)[C@@H](O)[C@H](O[C@@H]2O[C@@H](C)[C@](O)(C=O)[C@H]2O[C@@H]2O[C@@H](CO)[C@H](O)[C@@H](O)[C@@H]2NC)[C@@H](N/C(N)=N\[H])[C@@H]1O` [Streptomycin USP, Streptomycin sulfate], the Numbers of deaths ([1]; 100 mg/kg i.p., 2 x week, cumulative 800 mg/kg SM base) was 5/12, the “Survival rate (%) 14 d” value [1, 5] was 83% and the “Survival rate (%) 28 d” value [1, 5] was 58%. For the same compound, the “Survival rate (%) 56 d” value [1, 5] was 58%, the Numbers of deaths ([1]; 200 mg/kg i.p., 5 x week, cumulative 4000 mg/kg SM base) was 1/12 and the “Survival rate (%) 14 d” value [1, 6] was 92%. The “Survival rate (%) 28 d” value [1, 6] was 92%, the “Survival rate (%) 56 d” value [1, 6] was 92% and the “Body weight” value ([1]; D14, 100 mg/kg i.p., 2 x week) was 14.90 ± 1.83 g. For the same compound, the “Log (CFU/Lung)” value ([1]; D14, 100 mg/kg i.p., 2 x week) was 8.16 ± 0.25 Log (CFU/Lung), the “Log (CFU/Spleen)” value ([1]; D14, 100 mg/kg i.p., 2 x week) was 7.55 ± 0.26 Log (CFU/Spleen) and the “Body weight” value ([1]; D14, 200 mg/kg i.p., 5 x week) was 16.22 ± 0.39 g. The “Log (CFU/Lung)” value ([1]; D14, 200 mg/kg i.p., 5 x week) was 7.85 ± 0.14 Log (CFU/Lung), the “Log (CFU/Spleen)” value ([1]; D14, 200 mg/kg i.p., 5 x week) was 6.90 ± 0.08 Log (CFU/Spleen) and the “Body weight” value ([1]; D28, 100 mg/kg i.p., 2 x week) was 16.73 ± 2.64 g. For the same compound, the “Log (CFU/Lung)” value ([1]; D28, 100 mg/kg i.p., 2 x week) was 8.37 ± 0.36 Log (CFU/Lung), the “Log (CFU/Spleen)” value ([1]; D28, 100 mg/kg i.p., 2 x week) was 7.48 ± 0.51 Log (CFU/Spleen) and the “Body weight” value ([1]; D28, 200 mg/kg i.p., 5 x week) was 19.62 ± 0.29 g. The “Log (CFU/Lung)” value ([1]; D28, 200 mg/kg i.p., 5 x week) was 7.57 ± 0.26 Log (CFU/Lung), the “Log (CFU/Spleen)” value ([1]; D28, 200 mg/kg i.p., 5 x week) was 6.66 ± 0.28 Log (CFU/Spleen) and the “Body weight” value [1, 7] was 17.85 ± 1.15 g. For the same compound, the “Log (CFU/Lung)” value [1, 7] was 8.86 ± 0.18 Log (CFU/Lung), the “Log (CFU/Spleen)” value [1, 7] was 7.21 ± 0.23 Log (CFU/Spleen) and the “bacterial count of MAC from spleen, lungs and liver” value [2] was “significant reduction in bacterial count”.

For “Vancomycin sulfate [Vancomycin injection (USP)]”, the Mortality ([3]; 10 days) was 70%, the Survival ([3]; 10 days) was 30% and the “Day 1 (deaths recorded that day)” value ([3]; n=10, Day 1) was 0. The “Day 2 (deaths recorded that day)” value ([3]; n=10, Day 2) was 0, the “Day 3 (deaths recorded that day)” value ([3]; n=10, Day 3) was 0 and the “Day 4 (deaths recorded that day)” value ([3]; n=10, Day 4) was 1. The “Day 5 (deaths recorded that day)” value ([3]; n=10, Day 5) was 3, the “Day 6 (deaths recorded that day)” value ([3]; n=10, Day 6) was 2 and the “Day 7 (deaths recorded that day)” value ([3]; n=10, Day 7) was 0. For the same compound, the “Day 8 (deaths recorded that day)” value ([3]; n=10, Day 8) was 1, the “Day 9 (deaths recorded that day)” value ([3]; n=10, Day 9) was 0 and the “Day 10 (deaths recorded that day)” value ([3]; n=10, Day 10) was 0. The “concentration in epithelial lining fluid” value ([4]; patients, lung epithelial lining fluid versus plasma) was ≤ 20 % of plasma levels and the “patients with inadequate concentrations” value ([4]; standard dosage (1 g twice daily)) was “approximately 40 % of patients”.
